Patent US20250318528A1, “HERBICIDE COMPOSITION AND WEED CONTROLLING METHOD” (SUMITOMO CHEMICAL COMPANY, LIMITED, priority 2022, published 2025)
Where a name gives a salt, the structure may show the parent alone.

Key:
Assay type in all cases: in vivo
[1] = test system: Italian ryegrass (Lolium multiflorum); assay: Herbicidal effect, foliar spray pot test (Example 349); conditions: sprayed 21 days after seeding, evaluated after 4 days, rating 0 to 100
Method: (§1) The formulation (1-41) was produced in the same manner as in Example 348.
(§2) After filling a plastic pot with soil, common barnyardgrass (Echinochloa crus-galli) and Italian ryegrass (Lolium multiflorum) were seeded therein and grown in a greenhouse. The weeds were then cultivated in the greenhouse, and 21 days after seeding, a spray liquid containing the formulation (1-41) and/or EnlistOne (670 g/L of 2,4-D choline salt, manufactured by Dow AgroSciences) prepared so that the application rate of the compound (I-41) might be 20 g/ha and the application rate of EnlistOne might be 798 g/ha as an equivalent of 2,4-D choline salt (1.754 L/ha (24 fluid ounce/acre) as […]) was uniformly sprayed above the pot using a spraying machine so that the spray liquid amount might be 218 L/ha. Thereafter, the weeds were grown in the greenhouse for 4 days and the herbicidal effect was evaluated.
(§3) From the results of the herbicidal effect (value of A or B) for the single use of each of the compounds, the expected value of the herbicidal effect when the compounds were combined was determined according to the Colby's equation: […]

[2] = test system: common barnyardgrass (Echinochloa crus-galli); assay: as above; conditions: sprayed 21 days after seeding, evaluated after 4 days, rating 0 to 100
Method: as §1, §2, §3

[3] = test system: Italian ryegrass (Lolium multiflorum); assay: Herbicidal effect, foliar spray pot test (Example 347); conditions: sprayed 17 days after seeding, evaluated after 4 days, rating 0 to 100
Method: (§4) The formulation (I-15) was produced in the same manner as in Example 346.
(§5) After filling a plastic pot with soil, common barnyardgrass (Echinochloa crus-galli) and Italian ryegrass (Lolium multiflorum) were seeded therein and grown in a greenhouse. The weeds were then cultivated in the greenhouse, and 17 days after seeding, a spray liquid containing the formulation (1-15) and/or Xtendimax (350 g/L of dicamba diglycolamine salt, manufactured by Monsanto Company) prepared so that the application rate of the compound (I-15) might be 20 g/ha and the application rate of Xtendimax might be 560 g/ha as an equivalent of dicamba acid (1.608 L/ha (22.0 fluid ounce/acre) as Xtendimax) was uniformly sprayed above the pot using a spraying machine so that the spray liquid amount might be 218 L/ha. Thereafter, the weeds were grown in the greenhouse for 4 days and the herbicidal effect was evaluated.
as §3

[4] = test system: common barnyardgrass (Echinochloa crus-galli); assay: as above; conditions: sprayed 17 days after seeding, evaluated after 4 days, rating 0 to 100
Method: as §4, §5, §3

[5] = test system: Italian ryegrass (Lolium multiflorum); assay: Herbicidal effect, foliar spray pot test (Example 346); conditions: sprayed 17 days after seeding, evaluated after 4 days, rating 0 to 100
Method: (§6) The compound (I-15) (55 mg), 76.5 mg of Emulsogen TS290 (polyoxyethylene tristyryl phenyl ether, manufactured by Clariant) and 76.5 mg of Phenylsulfonat CAL (mixture of 70% calcium dodecylbenzenesulfonate and 30% iso-butanol, manufactured by Clariant) were dissolved in Solvesso 200ND (aromatic hydrocarbon, manufactured by Exxon Mobile Corporation) to make 1 ml in total, thus producing an emulsifiable concentrate (hereinafter referred to as formulation (I-15)).
(§7) After filling a plastic pot with soil, common barnyardgrass (Echinochloa crus-galli) and Italian ryegrass (Lolium multiflorum) were seeded therein and grown in a greenhouse. The weeds were then cultivated in the greenhouse, and 17 days after seeding, a spray liquid containing the formulation (1-15) and/or Roundup PowerMax (660 g/L of glyphosate potassium salt, manufactured by Monsanto Company) prepared so that the application rate of the compound (I-15) might be 20 g/ha and the application rate of Roundup PowerMax might be 1262 g/ha as an equivalent of glyphosate acid (2.338 L/ha (32 fluid ounce/acre) as Roundup PowerMax) was uniformly sprayed above the pot using a spraying machine so that the spray liquid amount may be 218 L/ha. Thereafter, the weeds were grown in the greenhouse for 4 days and the herbicidal effect was evaluated.
as §3

[6] = test system: common barnyardgrass (Echinochloa crus-galli); assay: as above; conditions: sprayed 17 days after seeding, evaluated after 4 days, rating 0 to 100
Method: as §6, §7, §3

weeds = assay: Examples 1 to 23 with compound (I-15) replaced by another compound (I) (Examples 24 to 115); conditions: as Examples 1 to 23 with compound (I-15) replaced; used with pyroxasulfone, saflufenacil, flumioxazin and/or glyphosate-potassium salt; crop soybean, corn or cotton
[7] = test system: Italian ryegrass (Lolium multiflorum); assay: Herbicidal effect, foliar spray pot test (Example 348); conditions: sprayed 17 days after seeding, evaluated after 4 days, rating 0 to 100
Method: as §6, with “(I-41)” for “(I-15)”, “(I-41)).” for “(I-15)).”
(§8) After filling a plastic pot with soil, common barnyardgrass (Echinochloa crus-galli) and Italian ryegrass (Lolium multiflorum) were seeded therein and grown in a greenhouse. The weeds were then cultivated in the greenhouse, and 17 days after seeding, a spray liquid containing the formulation (1-41) and/or Liberty (280 g/L of glufosinate ammonium salt, manufactured by Bayer) prepared so that the application rate of the compound (I-41) might be 20 g/ha and the application rate of Liberty might be 594 g/ha as glufosinate ammonium salt (2.12 L/ha (29.0 fluid ounce/acre) as Liberty) was uniformly sprayed above the pot using a spraying machine so that the spray liquid amount might be 218 L/ha. Thereafter, the weeds were grown in the greenhouse for 4 days and the herbicidal effect was evaluated.
as §3

[8] = test system: common barnyardgrass (Echinochloa crus-galli); assay: as above; conditions: sprayed 17 days after seeding, evaluated after 4 days, rating 0 to 100
Method: as §6, with “(I-41)” for “(I-15)”, “(I-41)).” for “(I-15)).”
as §8, §3

[9] = 2,4-D choline salt 798 g/ha (EnlistOne) alone
[10] = compound (I-15) 20 g/ha alone, 218 L/ha
[11] = compound (I-41) 20 g/ha alone, 218 L/ha
[12] = dicamba diglycolamine salt 560 g/ha (dicamba acid equivalent, Xtendimax) alone
[13] = glufosinate ammonium salt 594 g/ha (Liberty) alone
[14] = glyphosate potassium salt 1,262 g/ha (glyphosate acid equivalent, Roundup PowerMax) alone

C[N+](C)(C)CCO.O=C([O-])COc1ccc(Cl)cc1Cl [2,4-D choline salt, reference compound]
Herbicidal effect Observed value [1, 9]: 5 | Herbicidal effect Observed value [2, 9]: 10

COC(=O)C(C)OC(=O)C1(Oc2cc(-n3c(=O)cc(C(F)(F)F)n(C)c3=O)c(F)cc2Cl)CC1 (centres unmarked) [Compound (I-15)]
Herbicidal effect Observed value [3, 10]: 20 | Herbicidal effect Observed value [4, 10]: 70 | Herbicidal effect Observed value [5, 10]: 20 | Herbicidal effect Observed value [6, 10]: 70

CCOC(=O)C(C)OC(=O)C1(Oc2cc(-n3c(=O)cc(C(F)(F)F)n(C)c3=O)c(F)cc2Cl)CC1 (centres unmarked) [Compound (I-29)]
weed control effect compared to the single use of each of the compounds (weeds): synergistic weed control effect

CCOC(=O)C(C)(C)OC(=O)C1(Oc2cc(-n3c(=O)cc(C(F)(F)F)n(C)c3=O)c(F)cc2Cl)CC1 [Compound (I-30)]
weed control effect compared to the single use of each of the compounds (weeds): synergistic weed control effect

CCOC(=O)C(CC)OC(=O)C1(Oc2cc(-n3c(=O)cc(C(F)(F)F)n(C)c3=O)c(F)cc2Cl)CC1 (centres unmarked) [Compound (I-33)]
weed control effect compared to the single use of each of the compounds (weeds): synergistic weed control effect

CCOC(=O)C1(OC(=O)C2(Oc3cc(-n4c(=O)cc(C(F)(F)F)n(C)c4=O)c(F)cc3Cl)CC2)CC1 [Compound (I-41)]
weed control effect compared to the single use of each of the compounds (weeds): synergistic weed control effect | Herbicidal effect Observed value [1, 11]: 20 | Herbicidal effect Observed value [2, 11]: 70 | Herbicidal effect Observed value [7, 11]: 20 | Herbicidal effect Observed value [8, 11]: 50

COc1c(Cl)ccc(Cl)c1C(=O)O.NCCOCCO [Dicamba diglycolamine salt, dicamba diglycolamine salt, reference compound]
Herbicidal effect Observed value [3, 12]: 0 | Herbicidal effect Observed value [4, 12]: 5

CP(=O)(O)CCC(N)C(=O)O (centres unmarked) [Glufosinate ammonium salt, glufosinate ammonium salt, reference compound]
Herbicidal effect Observed value [7, 13]: 40 | Herbicidal effect Observed value [8, 13]: 70

O=C(O)CNCP(=O)(O)O [Glyphosate potassium salt, reference compound]
Herbicidal effect Observed value [5, 14]: 10 | Herbicidal effect Observed value [6, 14]: 30
